What was measured:
[1] = target: Mitogen-activated protein kinase 3 (Homo sapiens, UniProt P27361); assay: DRUGMATRIX: Protein Serine/Threonine Kinase, ERK1 enzyme inhibition (substrate: Myelin Basic Protein); parameters: species or system Escherichia coli; details: Not Active = under 50% inhibition at 10 µM
[2] = target: T1, Interstitial collagenase (Homo sapiens, UniProt P03956); assay: biochemical; format: tissue-based, Rheumatoid synovial fibroblasts;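 also: MMP-1 enzyme inhibition assay using a peptide substrate; in other assays of this panel Not Active means under 50% inhibition at 10 µM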
T1 sequence (P03956 whole entry): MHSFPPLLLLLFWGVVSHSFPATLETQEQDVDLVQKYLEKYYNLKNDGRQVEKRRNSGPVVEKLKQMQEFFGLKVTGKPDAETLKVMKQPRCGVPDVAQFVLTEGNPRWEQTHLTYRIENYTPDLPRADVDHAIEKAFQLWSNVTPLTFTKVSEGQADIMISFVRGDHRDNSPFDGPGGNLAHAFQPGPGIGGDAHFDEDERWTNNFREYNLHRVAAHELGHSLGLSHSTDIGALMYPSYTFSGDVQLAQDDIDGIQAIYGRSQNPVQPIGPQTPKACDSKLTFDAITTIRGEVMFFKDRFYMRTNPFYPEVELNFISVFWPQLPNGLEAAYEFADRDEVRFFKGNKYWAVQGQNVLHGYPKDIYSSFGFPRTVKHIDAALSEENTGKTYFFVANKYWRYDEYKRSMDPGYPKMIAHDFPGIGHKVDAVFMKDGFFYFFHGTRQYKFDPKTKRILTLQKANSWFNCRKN

[3] = target: T2, 5-hydroxytryptamine receptor 1A (Rattus norvegicus, UniProt P19327); format: cell membranes, CHO-K1, Membrane; details: cho-k1; also: in other assays of this panel Not Active means under 50% inhibition at 10 µM
T2 sequence (P19327 whole entry): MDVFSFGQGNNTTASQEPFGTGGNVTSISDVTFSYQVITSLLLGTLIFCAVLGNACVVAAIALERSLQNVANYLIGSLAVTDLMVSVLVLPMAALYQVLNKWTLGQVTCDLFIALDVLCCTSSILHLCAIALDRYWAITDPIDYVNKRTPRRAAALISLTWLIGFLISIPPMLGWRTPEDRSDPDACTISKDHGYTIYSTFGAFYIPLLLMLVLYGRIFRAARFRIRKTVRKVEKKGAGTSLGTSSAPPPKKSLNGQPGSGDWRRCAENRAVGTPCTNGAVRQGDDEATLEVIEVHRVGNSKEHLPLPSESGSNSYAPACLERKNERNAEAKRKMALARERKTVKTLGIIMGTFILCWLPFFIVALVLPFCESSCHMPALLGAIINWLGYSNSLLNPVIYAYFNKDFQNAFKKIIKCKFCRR

[4] = target: Aldo-keto reductase family 1 member B1 (Rattus norvegicus, UniProt P07943); assay: biochemical; format: tissue-based, Lens of camera-type eye;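 also: inhibition of aldose reductase enzyme activity, measured with DL-glyceraldehyde as the substrate; in other assays of this panel Not Active means under 50% inhibition at 10 µM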
[5] = target: Insulin receptor (Rattus norvegicus, UniProt P15127); format: cell membranes, Wistar, Liver, Membrane; also: in other assays of this panel Not Active means under 50% inhibition at 10 µM
[6] = target: Mitogen-activated protein kinase 1 (Homo sapiens, UniProt P28482); assay: DRUGMATRIX: Protein Serine/Threonine Kinase, ERK2 enzyme inhibition (substrate: Myelin Basic Protein); parameters: species or system Escherichia coli; details: Not Active = under 50% inhibition at 10 µM
Chain of Mitogen-activated protein kinase 1 (P28482 whole entry): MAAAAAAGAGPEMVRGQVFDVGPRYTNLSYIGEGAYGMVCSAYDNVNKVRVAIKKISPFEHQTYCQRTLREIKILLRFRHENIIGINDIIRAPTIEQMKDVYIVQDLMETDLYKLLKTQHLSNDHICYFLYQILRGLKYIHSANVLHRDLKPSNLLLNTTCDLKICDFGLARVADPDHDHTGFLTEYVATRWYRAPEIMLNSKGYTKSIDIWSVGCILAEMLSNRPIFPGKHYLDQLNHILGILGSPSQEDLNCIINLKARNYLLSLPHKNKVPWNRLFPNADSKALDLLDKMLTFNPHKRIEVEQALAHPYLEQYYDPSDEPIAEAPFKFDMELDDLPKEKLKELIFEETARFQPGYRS

Chain of Insulin receptor (P15127 27-759 limits assumed): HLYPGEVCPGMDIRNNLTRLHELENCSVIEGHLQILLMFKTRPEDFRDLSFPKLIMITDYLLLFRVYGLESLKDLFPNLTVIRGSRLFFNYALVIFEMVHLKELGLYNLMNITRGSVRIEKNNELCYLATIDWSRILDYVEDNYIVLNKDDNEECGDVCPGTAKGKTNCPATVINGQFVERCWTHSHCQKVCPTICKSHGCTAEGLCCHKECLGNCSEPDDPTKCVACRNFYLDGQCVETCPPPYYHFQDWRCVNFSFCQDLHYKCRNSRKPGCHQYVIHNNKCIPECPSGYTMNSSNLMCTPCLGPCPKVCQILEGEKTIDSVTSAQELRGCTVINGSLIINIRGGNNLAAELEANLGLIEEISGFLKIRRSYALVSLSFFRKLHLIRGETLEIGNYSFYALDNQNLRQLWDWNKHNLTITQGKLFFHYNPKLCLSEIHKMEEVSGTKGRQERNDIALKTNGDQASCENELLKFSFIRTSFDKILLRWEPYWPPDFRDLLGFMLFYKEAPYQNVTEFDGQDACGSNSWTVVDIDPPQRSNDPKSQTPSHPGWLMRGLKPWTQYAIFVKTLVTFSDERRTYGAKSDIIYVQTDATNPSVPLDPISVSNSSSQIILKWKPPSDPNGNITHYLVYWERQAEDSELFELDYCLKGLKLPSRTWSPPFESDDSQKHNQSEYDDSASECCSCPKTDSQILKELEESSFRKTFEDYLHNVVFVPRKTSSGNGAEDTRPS
Chain of Insulin receptor (P15127 764-1383 limits assumed): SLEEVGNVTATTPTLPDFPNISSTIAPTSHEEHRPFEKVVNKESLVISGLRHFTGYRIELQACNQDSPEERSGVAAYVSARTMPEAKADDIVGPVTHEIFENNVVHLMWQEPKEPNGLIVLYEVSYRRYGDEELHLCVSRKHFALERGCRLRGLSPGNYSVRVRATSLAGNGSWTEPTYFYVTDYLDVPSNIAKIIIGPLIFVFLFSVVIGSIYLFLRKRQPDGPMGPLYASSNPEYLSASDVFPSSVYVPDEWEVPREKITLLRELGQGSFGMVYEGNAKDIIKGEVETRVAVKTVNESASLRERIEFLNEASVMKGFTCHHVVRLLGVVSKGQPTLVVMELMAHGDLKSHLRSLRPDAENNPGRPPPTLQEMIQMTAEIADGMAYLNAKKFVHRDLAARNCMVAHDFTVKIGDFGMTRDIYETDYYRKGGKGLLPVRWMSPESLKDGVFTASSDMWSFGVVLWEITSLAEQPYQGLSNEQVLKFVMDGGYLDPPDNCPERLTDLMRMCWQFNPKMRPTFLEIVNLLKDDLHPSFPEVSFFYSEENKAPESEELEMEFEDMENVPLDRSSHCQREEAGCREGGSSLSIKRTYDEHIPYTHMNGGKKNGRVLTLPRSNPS
Chain of Mitogen-activated protein kinase 3 (P27361 whole entry): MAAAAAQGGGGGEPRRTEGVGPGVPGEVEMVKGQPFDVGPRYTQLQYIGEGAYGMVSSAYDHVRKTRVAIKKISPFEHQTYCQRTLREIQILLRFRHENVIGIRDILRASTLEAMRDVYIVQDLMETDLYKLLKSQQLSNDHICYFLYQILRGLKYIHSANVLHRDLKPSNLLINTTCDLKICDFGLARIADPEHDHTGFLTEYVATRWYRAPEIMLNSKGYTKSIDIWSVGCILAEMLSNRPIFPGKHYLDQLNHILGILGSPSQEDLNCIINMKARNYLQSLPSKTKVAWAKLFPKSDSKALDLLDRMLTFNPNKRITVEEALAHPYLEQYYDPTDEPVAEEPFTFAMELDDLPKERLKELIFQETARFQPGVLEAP

Compound | IC50 [1] | IC50 [2] | IC50 [3] | IC50 [4] | IC50 [5] | IC50 [6] | IC50 ([4]; read-out: IC50) | Ki [1] | Ki [2] | Ki [3] | Ki [4] | Ki [5] | Ki [6]
C[C@@H]1O[C@@H](O[C@H]2C[C@@H](O)[C@]3(CO)[C@H]4[C@H](O)C[C@]5(C)[C@@H](C6=CC(=O)OC6)CC[C@]5(O)[C@@H]4CC[C@]3(O)C2)[C@H](O)[C@H](O)[C@H]1O [OUABAIN] | Not Active | Not Active | Not Active | Not Active | Not Active | Not Active |  |  |  |  |  |  | 
NC(=O)N1c2ccccc2CC(=O)c2ccccc21 [OXCARBAZEPINE] | Not Active | Not Active | Not Active | Not Active | Not Active | Not Active |  |  |  |  |  |  | 
COc1ccnc(C[S+]([O-])c2nc3ccc(OC(F)F)cc3[nH]2)c1OC (stereo unspecified) [PANTOPRAZOLE] | Not Active | Not Active | Not Active | Not Active | Not Active | Not Active |  |  |  |  |  |  | 
N=C(N)c1ccc(OCCCCCOc2ccc(C(=N)N)cc2)cc1 [PENTAMIDINE] | Not Active | Not Active | Not Active | Not Active | Not Active | Not Active |  |  |  |  |  |  | 
NNCCc1ccccc1 [PHENELZINE] | Not Active | Not Active | Not Active | Not Active | Not Active | Not Active |  |  |  |  |  |  | 
CCc1ccc(CCOc2ccc(CC3SC(=O)NC3=O)cc2)nc1 (stereo unspecified) [PIOGLITAZONE] | Not Active | Not Active | Not Active |  | Not Active | Not Active | 13.2 µM |  |  |  |  |  | 
CCCNC(C)C(=O)Nc1ccccc1C (stereo unspecified) [PRILOCAINE] | Not Active | Not Active | Not Active | Not Active | Not Active | Not Active |  |  |  |  |  |  | 
CCN(CC)CCNC(=O)c1ccc(N)cc1 [PROCAINAMIDE] | Not Active | Not Active | Not Active | Not Active | Not Active | Not Active |  |  |  |  |  |  | 
CCN(CC)CCCC(C)Nc1c2ccc(Cl)cc2nc2ccc(OC)cc12 (stereo unspecified) [QUINACRINE] | Not Active | Not Active | Not Active | Not Active | Not Active | Not Active |  |  |  |  |  |  | 
C[C@]12C=CC(=O)C=C1CC[C@H]1[C@@H]3C[C@@H](O)[C@](O)(C(=O)CO)[C@@]3(C)C[C@H](O)[C@@]12F [TRIAMCINOLONE] | Not Active | Not Active | Not Active | Not Active | Not Active | Not Active |  |  |  |  |  |  | 
CC[C@]1(O)C[C@@H]2CN(CCc3c([nH]c4ccccc34)[C@@](C(=O)OC)(c3cc4c(cc3OC)N(C)[C@H]3[C@@](O)(C(N)=O)[C@H](O)[C@]5(CC)C=CCN6CC[C@]43[C@@H]65)C2)C1 [VINDESINE] | Not Active | Not Active | Not Active | Not Active | Not Active | Not Active |  |  |  |  |  |  | 
CCN(C(C)=O)c1cccc(-c2ccnc3c(C#N)cnn23)c1 [ZALEPLON] | Not Active | Not Active | Not Active | Not Active | Not Active | Not Active |  |  |  |  |  |  | 
COBALTOUS CHLORIDE | Not Active | Not Active | Not Active | Not Active | Not Active | Not Active |  | Not Active | Not Active | Not Active | Not Active | Not Active | Not Active
COLISTIN | Not Active | Not Active | Not Active | Not Active | Not Active | Not Active |  | Not Active | Not Active | Not Active | Not Active | Not Active | Not Active

— ChEMBL document CHEMBL1909046, “DrugMatrix in vitro pharmacology data”
